Test results: patent US20230331655A1, “HYDROXYN[…] AND METHODS OF USE THEREOF” (UNIVERSITY OF MARYLAND, BALTIMORE, priority 2020, published 2023)

What was measured:
Male CD-1 mice = experiment: mouse forced swim test, immobility time 24 h after treatment; format: in vivo; conditions: for Holm-Šídák post-hoc comparison, group compared vehicle (p, immobility time) / minimum effective dose to reduce immobility time in the forced swim test / doses at which immobility time in the forced swim test was reduced (effective doses): 24 h after treatment; for minimum effective dose to reduce immobility time in the forced swim test / shape of dose response in the forced swim test / doses at which immobility time in the forced swim test was reduced (effective doses): male mice, i.p.; for shape of dose response in the forced swim test: tested range up to 100 mg/kg; for doses at which immobility time in the forced swim test was reduced (effective doses): relative to vehicle
Protocol: Animals: Male CD-1 mice (Charles Rivers Laboratories; Raleigh, NC, USA), 8-11 weeks old at the time of testing, were habituated to the University of Maryland (Baltimore, MD, USA) animal facility for at least one week prior to testing. Mice were group housed in cages of 4-5 per cage with a constant 12-hour light cycle (lights on/off at 07:00/19:00). Food and water were available ad libitum. All experiments were performed during the light phase. All studies were approved by the University of Maryland School of Medicine Animal Care and Use Committee and conducted in accordance with the National Institutes of Health Guide for the Care and Use of Laboratory Animals.
Drugs: (2R,6R)-HNK hydrochloride, (2S,6S)-HNK hydrochloride, (2R,6S)-HNK, and (2S,6R)-HNK were synthesized and characterized (molecular structures were confirmed via ^1H and ^13C NMR, the absolute and relative stereochemistry was assigned by x-ray crystallography, and the purity was determined via LC/MS) at the National Center for Advancing Translation Sciences (National Institutes of Health, Rockville, MD, USA). The synthesis and characterization of (2R,6R)-HNK hydrochloride, (2S,6S)-HNK hydrochloride, (2R,6S)-HNK, and (2S,6R)-HNK were performed as previously described in Morris et al., 2017, Org. Lett. 19:4572-4575, which is incorporated by reference herein in its entirety. (5R)-methyl-(2R,6R)-HNK was obtained from Organix Inc. (Woburn, MA, USA). (5R)-methyl-(2R,6R)-HNK can be synthesized according to the method described in Example 1. All compounds were dissolved in 20% (w/v) cyclodextrin (Sigma Aldrich, USA) in saline and administered intraperitoneally (i.p.) in a volume of 7.5 ml/kg.
Forced swim test: Compounds were tested in separate cohorts of male mice (n=10-18/group; only male mice were tested to control for sex-dependent differences in pharmacokinetics and brain levels) and all injections were performed by a experimenter. (2R,6R)-HNK, (2S,6S)-HNK, (2R,6S)-HNK, (2S,6R)-HNK were administered at the doses of 1, 3, 10, 30, and 100 mg/kg. (5R)-methyl-(2R,6R)-HNK was administered at the doses of 0.3, 1, 3, and 10 mg/kg. (2R,6S)-HNK and (2S,6R)-HNK were dosed as a free base whereas (2R,6R)-HNK and (2S,6S)-HNK, and (5R)-methyl-(2R,6R)-HNK were dosed as a hydrochloride salt. Vehicle and (2R,6R)-HNK (30 mg/kg) were included as controls in each cohort. Twenty-four h after treatment, mice were tested in the forced swim test, according to previously described methods. Injections were performed by a experimenter. Briefly, mice were placed into a clear Plexiglass cylinder (20 cm height×15 cm diameter) filled to a depth of 15 cm with water (23±1° C.) and subjected to a 6-min swim session. Swim sessions were recorded using a digital video camera. The time spent immobile (defined as passive floating with no movements other than those necessary to keep the head above water) was scored during the final 4 min of the session. Sessions were scored by a trained experimenter blind to the treatment groups.
Statistical analysis: All experiments and analyses were performed in a blinded and randomized manner. All injections were performed by a experimenter. Statistical analyses were performed using GraphPad Prism software (v8; GraphPad Software, Inc.). All statistical tests were two-tailed, and significance was assigned at p<0.05. Differences in immobility time were analyzed via one-way ANOVA followed by Holm-Šídák post-hoc comparison (with all groups compared to saline control group) when significance was reached. Significant results are indicated with asterisks in the figures (*p<0.05, **p<0.01, ***p<0.001). Data are presented as the mean±standard error of the mean (SEM).

mice [1] = conditions: i.p.; earlier study; cited from earlier work
[2] = i.p.; earlier study; cited from earlier work
NMDARs = conditions: read-out: Ki (binding / inhibition of NMDARs); cited from earlier work
mice [3] = experiment: overt adverse effects after oral administration; format: in vivo, mouse

Row | SMILES | Holm-Šídák post-hoc comparison, group compared vehicle (p, immobility time) (Male CD-1 mice; 1 mg/kg i.p.) | Holm-Šídák post-hoc comparison, group compared vehicle (p, immobility time) (Male CD-1 mice; 3 mg/kg i.p.) | Holm-Šídák post-hoc comparison, group compared vehicle (p, immobility time) (Male CD-1 mice; 10 mg/kg i.p.) | Holm-Šídák post-hoc comparison, group compared vehicle (p, immobility time) (Male CD-1 mice; 100 mg/kg i.p.) | minimum effective dose to reduce immobility time in the forced swim test (Male CD-1 mice) | shape of dose response in the forced swim test (Male CD-1 mice) | lowest dose reducing forced swim test immobility time (mice [1]) | lowest dose reducing escape failures in the learned helplessness test [2] | Ki (NMDARs) | fold higher than doses required for antidepressant-relevant effects (dose without overt adverse effects) (mice [3]) | oral doses without overt adverse effects (mice [3]) | Holm-Šídák post-hoc comparison, group compared vehicle (p, immobility time) (Male CD-1 mice; 30 mg/kg i.p.) | fold lower doses than (2R,6R)-HNK for antidepressant-relevant behavioral effects (Male CD-1 mice; forced swim test) | doses at which immobility time in the forced swim test was reduced (effective doses) (Male CD-1 mice) | Holm-Šídák post-hoc comparison, group compared vehicle (p, immobility time) (Male CD-1 mice; 0.3 mg/kg i.p.) | Holm-Šídák post-hoc comparison, group compared vehicle (p, immobility time) (Male CD-1 mice; 3 mg/kg i.p., hydrochloride) | Holm-Šídák post-hoc comparison, group compared vehicle (p, immobility time) (Male CD-1 mice; 3 mg/kg i.p., listed as (5R)-Me-(2R,6R)-HNK, hydrochloride)
1 | N[C@@]1(c2ccccc2Cl)CCC[C@@H](O)C1=O [(2R,6R)-HNK, (2R,6R)-hydroxynorketamine] | p = 0.2332 | p = 0.2631 | p = 0.0428 | p = 0.0135 | 10 mg/kg | did not demonstrate U-shaped dose responses | 5 mg/kg | 3 mg/kg | > 100 µM | at least 9 fold | up to 450 mg/kg | – | – | – | – | – | –
2 | N[C@@]1(c2ccccc2Cl)CCC[C@H](O)C1=O [(2R,6S)-HNK] | p = 0.0457 | p = 0.0261 | p = 0.0261 | p = 0.4950 | 1 mg/kg | U-shaped dose response curves | – | – | – | – | – | p = 0.4950 | 10 fold | 1 mg/kg | – | – | –
3 | N[C@]1(c2ccccc2Cl)CCC[C@@H](O)C1=O [(2S,6R)-HNK] | p = 0.8466 | p = 0.0404 | p = 0.0404 | p = 0.8466 | 3 mg/kg | U-shaped dose response curves | – | – | – | – | – | p = 0.8466 | – | – | – | – | –
4 | N[C@]1(c2ccccc2Cl)CCC[C@H](O)C1=O [(2S,6S)-HNK, (2S,6S)-hydroxynorketamine] | p = 0.9176 | p = 0.8804 | p = 0.9176 | p = 0.0003 | 30 mg/kg | did not demonstrate U-shaped dose responses | 25 mg/kg | 75 mg/kg | 7.34 to 21.2 µM | – | – | p = 0.0013 | – | – | – | – | –
5 | C[C@@H]1CC[C@@](N)(c2ccccc2Cl)C(=O)[C@@H]1O.Cl [(5R)-methyl-(2R,6R)-HNK, (2R,5R,6R)-2-amino-2-(2-chlorophenyl)-6-hydroxy-5-methylcyclohexan-1-one hydrochloride] | p = 0.0257 | – | p = 0.0026 | – | 1 mg/kg | – | – | – | – | – | – | – | – | 1 to 10 mg/kg | p = 0.8074 | 0.06 | p = 0.0671
